For one experiment, the target named is Pa RmlA (Pseudomonas aeruginosa, UniProt Q9HU22). The experiment in a line: inhibition of reconstituted RmlA activity. The class given is biochemical.
The target of a further experiment is SALTY RmlA (Salmonella enterica, UniProt P26393). Nature of the experiment: inhibition of reconstituted RmlA activity. Type of experiment: biochemical.
The next experiment concerns the target E. coli RmlA (Escherichia coli, UniProt P37744). Nature of the experiment: inhibition of reconstituted RmlA activity. The class given is biochemical.
Another experiment addresses Mtb RmlA (Mycobacterium tuberculosis, UniProt P9WH13). The experiment in a line: biochemical.

Sequence of SALTY RmlA (P26393 whole entry): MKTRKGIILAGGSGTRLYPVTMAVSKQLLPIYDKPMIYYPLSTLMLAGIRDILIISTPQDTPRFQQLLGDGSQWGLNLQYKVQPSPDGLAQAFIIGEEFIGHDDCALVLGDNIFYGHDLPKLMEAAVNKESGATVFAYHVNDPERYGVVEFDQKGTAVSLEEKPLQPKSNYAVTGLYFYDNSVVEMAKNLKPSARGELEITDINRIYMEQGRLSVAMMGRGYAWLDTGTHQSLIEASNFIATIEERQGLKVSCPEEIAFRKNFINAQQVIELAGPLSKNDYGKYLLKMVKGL
Sequence of E. coli RmlA (P37744 whole entry): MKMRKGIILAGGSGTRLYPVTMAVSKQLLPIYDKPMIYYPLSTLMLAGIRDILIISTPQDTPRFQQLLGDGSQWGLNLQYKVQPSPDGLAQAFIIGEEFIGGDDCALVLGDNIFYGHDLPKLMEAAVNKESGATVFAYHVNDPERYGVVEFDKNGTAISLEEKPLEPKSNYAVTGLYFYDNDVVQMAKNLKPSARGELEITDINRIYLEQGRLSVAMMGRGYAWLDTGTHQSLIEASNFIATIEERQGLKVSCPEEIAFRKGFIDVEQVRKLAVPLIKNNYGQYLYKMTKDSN
Sequence of Pa RmlA (Q9HU22 1-293): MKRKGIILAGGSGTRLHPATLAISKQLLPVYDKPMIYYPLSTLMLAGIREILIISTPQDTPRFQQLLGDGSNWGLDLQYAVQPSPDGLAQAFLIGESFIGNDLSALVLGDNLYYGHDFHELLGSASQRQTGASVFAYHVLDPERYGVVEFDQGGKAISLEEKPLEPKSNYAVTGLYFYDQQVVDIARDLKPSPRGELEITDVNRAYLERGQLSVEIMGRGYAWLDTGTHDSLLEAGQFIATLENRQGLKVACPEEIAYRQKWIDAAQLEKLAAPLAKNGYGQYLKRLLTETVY
Sequence of Mtb RmlA (P9WH13 whole entry): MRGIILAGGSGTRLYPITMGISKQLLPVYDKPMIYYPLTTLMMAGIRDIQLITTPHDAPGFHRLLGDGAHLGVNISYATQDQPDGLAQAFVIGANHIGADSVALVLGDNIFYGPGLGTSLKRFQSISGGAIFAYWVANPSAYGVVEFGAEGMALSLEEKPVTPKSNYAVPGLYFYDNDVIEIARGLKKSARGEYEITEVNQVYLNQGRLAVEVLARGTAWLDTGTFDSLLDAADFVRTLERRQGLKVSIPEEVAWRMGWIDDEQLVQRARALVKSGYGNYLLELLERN

`Cc1cn([C@H]2C[C@H](O)[C@@H](COP(=O)(O)OP(=O)(O)O[C@H]3O[C@@H](C)[C@H](O)[C@@H](O)[C@H]3O)O2)c(=O)[nH]c1=O` [compound 1, dTDP-β-L-Rha]: the 50% inhibitory concentration (IC50) against Pa RmlA is 25.1 µM; at SALTY RmlA it was 109 µM; against E. coli RmlA, 137 µM; against Mtb RmlA, 65.7 µM.
In turn, `Cc1cn([C@H]2C[C@H](O)[C@@H](COP(=O)(O)OP(=O)(O)O[C@H]3O[C@@H](C)[C@@H](O)[C@@H](O)[C@H]3O)O2)c(=O)[nH]c1=O` [compound 2, dTDP-β-L-6dTal] showed an IC50 at Pa RmlA of 312 µM.
On to `Cc1cn([C@H]2C[C@H](O)[C@@H](COP(=O)(O)OP(=O)(O)O[C@H]3O[C@@H](CO)[C@H](O)[C@@H](O)[C@H]3O)O2)c(=O)[nH]c1=O` [compound 11, dTDP-β-L-Man], for which the IC50 at Pa RmlA is 376 µM; on SALTY RmlA, above 500 µM; on E. coli RmlA, above 500 µM; against Mtb RmlA, 458 µM.
Take `C[C@@H]1O[C@H](OP(=O)(O)OP(=O)(O)OC[C@H]2O[C@@H](n3ccc(=O)[nH]c3=O)[C@H](O)[C@@H]2O)[C@H](O)[C@H](O)[C@H]1O` [compound 12, UDP-β-L-Rha]: at Pa RmlA, it took 362 µM to reach half-maximal inhibition (IC50).
Turning to `Cc1cn([C@H]2C[C@H](O)[C@@H](COP(=O)(O)OP(=O)(O)O[C@@H]3O[C@@H](C)[C@H](O)[C@@H](O)[C@H]3O)O2)c(=O)[nH]c1=O` [compound 10, dTDP-α-L-Rha (α-anomer 10)], the IC50 was 250 µM at Pa RmlA, above 500 µM at SALTY RmlA, above 500 µM at E. coli RmlA and 500 µM against Mtb RmlA.
